Test system: U 46619-induced pulmonary embolism
Assay: Preventing the U 46619-induced pulmonary embolism (survival rate of mouse)
Format: in vivo, mouse (male NMRI)
Settings: 1 mg/kg by stomach tube in 1% methylcellulose, lethal U 46619 (800-1000 μg/kg) into tail vein after 4 hours; survivors/animals used
Procedure: 2. Preventing the U 46619-Induced Pulmonary Embolism
Male NMRI mice, with a body weight of 25 g. are used. The test substance is suspended in 1% methylcellulose and administered to the experimental animals with the help of a stomach tube. The provocation test consists of injecting the lethal dose (800-1000 μg/kg) of the thromboxane mimetic (U 46619 of the Upjohn Co.) rapidly into the tail vein. The duration of the specific antagonistic effect is tested by pretreating the animals with 25 mg or 1 mg/kg of the different test substances and injecting U 46619 after 4 hours. The survival rate indicates how many of the animals used have survived the injection of the thromboxane mimetic.

| SMILES | Survival Rate of Mouse 1 mg/kg, 4 h |
| --- | --- |
| O=C(O)c1cc2cc(CCNS(=O)(=O)c3ccc(Cl)cc3)ccc2[nH]1 [12 l] | 2/5 |
| O=C(O)c1cc2cc(CCNS(=O)(=O)c3ccc(Cl)cc3)ccc2o1 [Example 11, 5-[2-(4-Chlorobenzenesulphonamido)-ethyl]-benzo[b]-furan-2-carboxylic acid] | 4/5 |

Same assay, conditions: 25 mg/kg by stomach tube in 1% methylcellulose, lethal U 46619 (800-1000 μg/kg) into tail vein after 4 hours; survivors/animals used

| SMILES | Survival Rate of Mouse 25 mg/kg, 4 h |
| --- | --- |
| O=C(O)c1cc2cc(CCNS(=O)(=O)c3ccc(Br)cc3)ccc2o1 [12 e] | 5/5 |
| O=C(O)COc1ccc(CCNS(=O)(=O)c2ccccc2)cc1 [Comparison Compound, 4-[2-(benzenesulfonylamino)-ethyl]-7-phenoxyacetic acid, reference compound] | 2/2 |
| O=C(O)c1cc2cc(CCNS(=O)(=O)c3ccc(Cl)cc3)ccc2o1 [Example 11, 5-[2-(4-Chlorobenzenesulphonamido)-ethyl]-benzo[b]-furan-2-carboxylic acid] | 10/10 |
| Cc1c(C(=O)O)oc2ccc(CCNS(=O)(=O)c3ccc(Cl)cc3)cc12 [12 g] | 5/5 |
| O=C(O)C1Cc2cc(CCNS(=O)(=O)c3ccccc3)ccc2O1 (stereo not drawn) [Example 13, 5-(2-Benzenesulphonamidoethyl)-2,3-dihydrobenzo[b]furan-2-carboxylic acid] | 5/5 |
| Cc1ccc(S(=O)(=O)NCCc2ccc3oc(C(=O)O)cc3c2)cc1 [12 b] | 4/5 |

Test system: thrombocyte aggregation (TX antagonistic effect)
Assay: TX antagonistic effect: inhibition of U 46619-induced thrombocyte aggregation in platelet-rich plasma of healthy blood donors (Born and Cross)
Format: cell-based
Settings: Erythrocyte, 5 min; U 46619-induced aggregation, human platelet-rich plasma, citrate, followed over 5 minutes; read-out: Human Erythrocytes IC50
Excerpt: 1. TX Antagonistic Effect of Human Erythrocytes
The thrombocyte aggregation is investigated by the method of Born and Cross (J. Physiol. 168, 178 (1963) in platelet-rich plasma of healthy blood donors. To inhibit clotting, the blood is mixed with 3.2% citrate in a ratio by volume of 1:9.
To induce thrombocyte aggregation, U 46619 (Upjohn & Co., Kalamazoo, U.S.A.), which is a stable analog of the prostaglandin endoperoxide […], is used. U 46619 was characterized as a selective thromboxane mimetic (Coleman et al., Brit. J. Pharmacol. 68, 127 P., 1980).
The aggregation test is carried out in a 4-channel aggregometer (Profiler® of the Bio/Data Co., U.S.A.). The course of the aggregation is followed over a period of 5 minutes. At the end of the test, the degree of aggregation attained is printed out. These values, which are obtained in the presence of different concentrations of the substance to be tested, are used for the determination of the EC50 for the TX antagonistic effect. The effectiveness varies inversely with the EC50 value.

| SMILES | IC50 [µM] |
| --- | --- |
| O=C(O)c1cc2cc(CCNS(=O)(=O)c3ccc(Br)cc3)ccc2o1 [12 e] | 2.7 |
| O=C(O)c1cc2cc(CCNS(=O)(=O)c3ccc(Cl)cc3)ccc2[nH]1 [12 l] | 1.4 |
| O=C(O)COc1ccc(CCNS(=O)(=O)c2ccccc2)cc1 [Comparison Compound, 4-[2-(benzenesulfonylamino)-ethyl]-7-phenoxyacetic acid, reference compound] | 1.85 |
| O=C(O)c1cc2cc(CCNS(=O)(=O)c3ccc(Cl)cc3)ccc2o1 [Example 11, 5-[2-(4-Chlorobenzenesulphonamido)-ethyl]-benzo[b]-furan-2-carboxylic acid] | 0.75 |
| Cc1c(C(=O)O)oc2ccc(CCNS(=O)(=O)c3ccc(Cl)cc3)cc12 [12 g] | 1.7 |
| O=C(O)C1Cc2cc(CCNS(=O)(=O)c3ccccc3)ccc2O1 (stereo not drawn) [Example 13, 5-(2-Benzenesulphonamidoethyl)-2,3-dihydrobenzo[b]furan-2-carboxylic acid] | 1.2 |
| Cc1ccc(S(=O)(=O)NCCc2ccc3oc(C(=O)O)cc3c2)cc1 [12 b] | 1.6 |

Source: patent US4931462A, “Heterocyclic substituted alkylsulphonamides pharmaceutical compositions containing them, and arterial disease treatment therewith” (Boehringer Mannheim GmbH, priority 1987, dated 1990)
